{
  "source": "patent US12139488B2",
  "about": "“Pyrido[3,2-d]pyrimidine compounds uses thereof for treating a proliferative disease” (Universite de Montreal, priority 2021, dated 2024)",
  "key": {"[1]": {"experiment": "Body weight during TGI experiments", "assay_type": "in vivo, NU(NCr)-Foxn1nu female mice", "details": "repeated oral treatment (QD or BID), Example 99 sodium salt suspension", "method": "NU(NCr)-Foxn1nu mice were inoculated subcutaneously at the right flank with 1×10^6 (HCT-116 or A375) or 3×10^6 (A101D, A2058, RKO, HT29 SK-MEL 30, Calu-6, HepG2, Lovo, NCI-H2122, NCIH1666 and NCIH1755) tumour cells in 0.2 mL of the 50:50 PBS:Matrigel mixture for tumour development. Tumour measurements were taken with an electronic microcalliper three times weekly. In addition, body weights were recorded at these times. Tumor volume was calculated, taking length to be the longest diameter across the tumor and width to be the corresponding perpendicular diameter using the following formula: ((length×width×[…])/2).\nFor tumor growth inhibition (TGI) experiments, the treatment was performed when mean tumour size reached approximately 200 mm^3, with at least 7 mice for each time point randomized to balance the average tumour size for each treatment group. Mice were administered orally (QD or BID) with a suspension of Example 99 sodium salt in a formulation consisting of 1% NMP, 0.3% Tween-80, pH 9.1. Example 99: Na+ powder was directly resuspended in the complete blank formulation. Dosing volume was 10 mL/kg, yielding the indicated doses (doses are in mg per kg or mpk). Tumours were measured with an electronic microcalliper three times weekly. In addition, body weights were recorded at these times. Tumor volume was calculated as described above. […]"}, "CRAF": {"molecular_target": "CRAF (Homo sapiens, UniProt P04049)", "sequence (P04049 whole entry, looked up)": "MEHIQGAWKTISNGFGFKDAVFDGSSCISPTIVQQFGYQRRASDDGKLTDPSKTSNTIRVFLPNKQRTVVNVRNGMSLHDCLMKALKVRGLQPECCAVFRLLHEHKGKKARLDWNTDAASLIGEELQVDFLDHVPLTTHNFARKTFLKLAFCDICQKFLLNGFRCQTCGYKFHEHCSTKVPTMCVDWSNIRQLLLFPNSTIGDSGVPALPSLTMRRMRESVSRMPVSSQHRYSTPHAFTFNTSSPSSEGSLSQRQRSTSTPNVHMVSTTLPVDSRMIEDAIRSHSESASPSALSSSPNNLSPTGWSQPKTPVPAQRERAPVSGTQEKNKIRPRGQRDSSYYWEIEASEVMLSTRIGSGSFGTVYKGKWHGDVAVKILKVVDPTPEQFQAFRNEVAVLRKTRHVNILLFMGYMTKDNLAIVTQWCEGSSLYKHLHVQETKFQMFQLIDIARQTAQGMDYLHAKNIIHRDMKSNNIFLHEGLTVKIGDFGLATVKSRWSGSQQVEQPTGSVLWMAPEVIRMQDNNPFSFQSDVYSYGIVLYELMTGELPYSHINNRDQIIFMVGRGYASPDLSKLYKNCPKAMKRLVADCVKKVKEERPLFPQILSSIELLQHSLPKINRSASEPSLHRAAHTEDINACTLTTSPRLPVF", "experiment": "CRAF kinase activity assay (ADP-Glo)", "assay_type": "biochemical", "details": "read-out: Kinase IC50 (nM) CRAF", "in_short": "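Compound was tested at nine concentrations (0.01–100 nM, 0.05% DMSO final) against BRAF or CRAF phosphorylating MEK1 with ATP, for 2 h at 30 °C. ADP formed was read by ADP-Glo luminescence, and % inhibition was fitted with a four-parameter log(agonist) model to obtain IC50.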"}},
  "data": [
    {"smiles": "Nc1cccc2c1ncn2-c1ccc2ncnc(Nc3c(F)ccc(NS(=O)(=O)c4cccc(Cl)c4Cl)c3F)c2n1", "note": "[Example 99]", "values": [
      {"measurement": "change in body weight compared to vehicle-treated animals", "setting": "[1]", "result": "did not result in any change in body weight"},
      {"measurement": "IC50", "setting": "CRAF", "result": "< 10", "unit": "nM"}
    ]}
  ]
}
